Entries after “also recorded” stand apart in the source; their conditions may differ. Like-named read-outs stand apart in the source and are kept apart here.
Assays:
HSP 72 = assay: HSP expression in heart and lung tissue of unstressed rats (Western blot); assay type: in vivo, rat
Procedure: (§1) GLN enhances heat shock protein expression in the unstressed and stressed myocardium. […] The increase was also observed for HSP 27 (another of the protective heat shock proteins) wherein the induction occurred as early as 4-6 hours and persisted for up to 48-72 hours.
Tissues were then harvested four hours post-GLN administration, and HSP 72 expressions were analyzed by Western blot. The image shown is representative of those obtained in four different experiments. The graph represents a percent increase in HSP 72 over control. […] (*p<0.001, **p<0.01, ***p<0.05 compared to control by ANOVA.)

HSP 72 and 27 = assay: HSP expression in hearts of LPS-injured rats (Western blot); assay type: in vivo, rat; conditions: 0.75 g/kg GLN with 5 mg/kg LPS; six hours; vs LR control
Procedure: as §1
Tissues were harvested six hours post-LPS injury and analyzed for HSP 72 expression via Western blot. Each lane represents protein extracts from a separate animal. Relative densitometry are expressed as means ±SE. *−p<0.0005, compared with LR resuscitation alone assessed by Students t test.

cardiomyocytes = assay: Ischemia/reperfusion injury of isolated cardiomyocytes; assay type: cell-based
Procedure: Spontaneously contracting cardiomyocytes were studied.
Cardiomyocytes were allowed to equilibrate at baseline normoxic conditions for 60 minutes.

[1] = test system: onset of ischemia (1 mm of ST depression); assay: Exercise stress test in patients with chronic stable angina, crossover trial; assay type: in vivo, human; conditions: oral GLN 80 mg/kg 40 minutes prior to exercise stress test; 17 patients; vs placebo
From the text: Patients were then crossed over following a one-week interval.

[2] = test system: polymicrobial sepsis and peritonitis (CLP); assay: CLP peritonitis/polymicrobial sepsis, GLN 30 minutes after induction, with or without quercetin; assay type: in vivo, rat
From the text: Cecal ligation and puncture (CLP) in the rat was chosen as the appropriate model.

[3] = test system: myocardial ischemia/reperfusion injury
critically ill humans = conditions: cited from earlier work; for tolerability of the maximum dose previously administered in humans: even in critically ill patients
[4] = in vivo; cited from earlier work
[5] = test system: infection in patients following bone marrow transplantation; conditions: parenteral nutritional program supplemented with glutamine (Calder and Yapoob 1999); cited from earlier work
[6] = GLN 30 minutes after induction of peritonitis and sepsis

## NC(=O)CC[C@H](N)C(=O)O [GLN, Glutamine]
HSP 72; unstressed rat heart
  HSP 27 induction, earliest occurrence: 4 to 6 h
  HSP 27 induction, persistence up to: 48 to 72 h
HSP 72; unstressed rats
  HSP 70 and HSP 25 in heart and lung tissue: enhance
HSP 72; unstressed rats, GLN 0.15, 0.45, 0.75 g/kg over 12-15 minutes, tissue four hours post-GLN
  HSP 72 expression in heart and lung tissue vs control (densitometry): significantly enhanced; also recorded: significantly increased
HSP 72 and 27
  HSP 72 and 27 expression in heart (western blot): markedly enhanced
cardiomyocytes; 10 mM GLN
  HSP 72 content (western blot) vs cells not receiving GLN: significant increase
  return of contractile function following I/R injury: significantly enhanced
cardiomyocytes; 10 mM GLN one hour before and throughout ischemia and reperfusion, control 48%
  cell death from ischemia/reperfusion: 22%
[1]
  onset of ST depression: significant delay
[2]; CLP model, rat
  serum HSP 70 expression: markedly enhanced; also recorded: approximate four-fold increase
[2]; [6]
  deficient lung HSP 70 expression: markedly enhanced
  lung HSF-1 activation: markedly enhanced
[2]; following sepsis and peritonitis
  NAD+/NADH levels in lung tissue: nearly doubling
[2]; rat, in vivo
  survival following peritonitis and polymicrobial sepsis: significantly improve survival; also recorded: doubling of survival
[3]; 0.75 g/kg alanine-glutamine (0.52 g/kg glutamine) IP 18 hours prior, pre-load 8 and 12 mmHg
  recovery of cardiac flow following reperfusion: significantly improved
[3]; 60 minutes following reperfusion, 0.52 g/kg GLN 18 hours prior
  percent recovery of coronary flow: significantly enhanced
[3]; single dose 18 hours prior to 15 minutes of no flow ischemia
  post-I/R cardiac output: significant improvement
Critically ill humans
  tolerability of the maximum dose previously administered in humans: without adverse side effects
Critically ill humans; listed as L-Glutamine
  tolerability of the maximum dose previously administered in humans: tolerated well without adverse side effects
Critically ill humans; variety of clinical settings
  toxicity in critically ill humans: without any evidence of toxicity
[4]
  half-life: 6 h
[5]
  level of infection: lower level of infection
